Assay results: patent publication US9777070B2, “Anti-PTK7 antibody-drug conjugates” (Pfizer Inc., priority 2014, dated 2017)

Tests used:
Assay in all cases: In vivo efficacy, PDX tumor growth
Design in all cases: species or system human tumor in NOD/SCID mice
[1] = system: Breast-22 (BR22) TNBC PDX; settings: 1.5 mg/kg
Excerpt: (§1) The effects of anti-PTK7 antibody-drug conjugates were further evaluated on the in vivo growth of human tumor patient-derived xenografts (PDX). Primary tumor resection samples were procured from clinical sites following Institutional Review Board for the Protection of Human Subjects approval and in accordance with HIPAA regulations. Tumor fragments were stored and shipped in Hypothermasol (Biolife Solutions) on ice and were embedded in Matrigel (BD) containing a proprietary mix of growth factors and implanted subcutaneously into the mammary fatpad of female NOD/SCID mice within 24 hours of resection. Mice were monitored for health status daily and for tumor growth initially by visual inspection twice per week. Once the tumors were palpable, measurements of tumor volume began to track tumor growth and estimate cell doubling time. Tumor volume was estimated using the equation V=(A*B^2)/2 where A is the long axis and B is the short axis. When tumors reached a volume of 500 mm^3 to 1,500 mm^3, they were harvested for study and for re-transplant as a patient-derived xenograft (PDX). Depending on the line, mechanical and/or chemical dissociation can be used to separate the individual cells for passage. Live cells were inoculated into naïve animals with 10,000 to 50,000 cells per animals
(§2) For efficacy studies, tumors were harvested from passaging studies and cells were dissociated into single cell suspension. Preparations were counted for live cells using Trypan blue exclusion and 10,000 to 50,000 cells were inoculated per mouse in Matrigel. […] Tumor growth was initially followed by palpability with measurements beginning once tumor volumes reached about 30 mm^3. Studies were randomized based on tumor size once a cohort of tumor-bearing mice reached 140 mm^3 to 180 mm^3. Animals were dosed by intraperitoneal injection twice a week for two weeks (q4dx4). Study groups were followed until individual mice or entire group tumor measurements reached 1200 mm^3 when sacrifice was indicated in accordance with IACUC protocol. For selected dosing studies, pharmacokinetic submandibular bleeds were performed at 2 hours, 36 hours and 72 hours. A volume of 10 μL of blood was immediately pipetted into 90 μL of HBS-P (GE Healthcare). Samples were stored at −80° C. prior to analysis. For each tumor measurement the tumor volume±standard error of the mean (SEM) is provided. GT=Group Terminated due to large tumor size.
(§3) Animals were dosed every four days for four cycles (Q4Dx4) by intraperitoneal injection except the BR5 study which was by intravenous injection on the same schedule. Tumor measurements were recorded one or two times per week using digital calipers and tumor volume was estimated using the equation V=(A×B^2)/2 where A is the long axis and B is the short axis. Animal body weights were measured and recorded at least once a week. Study groups were followed until individual mice or entire group tumor measurements reached 1200 mm^3 at which point sacrifice was indicated in accordance with IACUC protocol. For the BR5 study, animals were sacrificed once tumor volume approached 15% of the body weight at staging in accordance with IACUC protocol.
(§4) Tumor growth inhibition (TGI) was calculated using the equation % TGI=[1−(mean tumor volume of treated)/(mean tumor volume of vehicle)]. […] Tumor regression was defined as a reduction in mean tumor volume after dosing. In cases where tumors regressed, Time To Progression (TTP) indicates the number of days between the first does and the time at which mean tumor volume increased from the previous measurement to a statistically significant degree.

[2] = system: Breast-31 (BR31) TNBC PDX; settings: 1.5 mg/kg
Excerpt: as §1, §2, §3, §4

[3] = system: Breast-13 (BR13) triple-negative breast cancer (TNBC) PDX; settings: 1 mg/kg
Excerpt: as §1, §2, §3
(§5) Tumor growth inhibition (TGI) was calculated using the equation % TGI=[1−(mean tumor volume of treated)/(mean tumor volume of vehicle)]. TGI was calculated at the latest possible time point, which was typically the last measurement before the control group was discontinued as described above. Tumor regression was defined as a reduction in mean tumor volume after dosing. In cases where tumors regressed, Time To Progression (TTP) indicates the number of days between the first does and the time at which mean tumor volume increased from the previous measurement to a statistically significant degree.

[4] = system: non-small cell lung cancer-176 (LU176) PDX; settings: 5 mg/kg
Excerpt: as §1, §2, §3, §5

[5] = system: non-small cell lung cancer-135 (LU135) PDX; settings: 20 mg/kg
Excerpt: as §1, §2, §3, §5

SMILES: COc1cccc2c1C(=O)c1c(O)c3c(c(O)c1C2=O)C[C@@](O)(C(=O)CO)C[C@@H]3O[C@H]1C[C@H](N)[C@H](O)[C@H](C)O1 [Doxorubicin, doxorubicin, reference compound]
- tumor volume ± SEM ([1]; Day 0): 297 ± 17 mm^3
- tumor volume ± SEM ([1]; Day 14): 641 ± 39 mm^3
- tumor volume ± SEM ([2]; Day 0): 160 ± 11 mm^3
- tumor volume ± SEM ([2]; Day 7): 304 ± 20 mm^3
- tumor volume ± SEM ([2]; Day 28): 759 ± 111 mm^3
- tumor volume ± SEM ([3]; Day 0): 156 ± 13 mm^3
- tumor volume ± SEM ([3]; Day 7): 219 ± 29 mm^3
- tumor volume ± SEM ([3]; Day 14): 295 ± 39 mm^3
- tumor volume ± SEM ([3]; Day 21): 353 ± 45 mm^3
- tumor volume ± SEM ([3]; Day 28): 432 ± 50 mm^3
- tumor volume ± SEM ([3]; Day 35): 696 ± 84 mm^3
- tumor volume ± SEM ([3]; Day 42): 1001 ± 159 mm^3

SMILES: N.N.[Cl][Pt][Cl] [cisplatin, reference compound]
- tumor volume ± SEM ([4]; Day 0): 259 ± 26 mm^3
- tumor volume ± SEM ([4]; Day 7): 124 ± 30 mm^3
- tumor volume ± SEM ([4]; Day 14): 97 ± 22 mm^3
- tumor volume ± SEM ([4]; Day 21): 102 ± 24 mm^3
- tumor volume ± SEM ([4]; Day 28): 179 ± 71 mm^3
- tumor volume ± SEM ([4]; Day 35): 207 ± 69 mm^3
- tumor volume ± SEM ([4]; Day 42): 297 ± 97 mm^3
- tumor volume ± SEM ([4]; Day 49): 619 ± 262 mm^3

SMILES: CC(=O)O[C@H]1C(=O)[C@@]2(C)[C@H]([C@H](OC(=O)c3ccccc3)[C@]3(O)C[C@H](OC(=O)[C@H](O)[C@@H](NC(=O)c4ccccc4)c4ccccc4)C(C)=C1C3(C)C)[C@]1(OC(C)=O)CO[C@@H]1C[C@@H]2O [paclitaxel, reference compound]
- tumor volume ± SEM ([5]; Day 0): 175 ± 24 mm^3
- tumor volume ± SEM ([5]; Day 7): 77 ± 13 mm^3
- tumor volume ± SEM ([5]; Day 14): 58 ± 12 mm^3
- tumor volume ± SEM ([5]; Day 21): 60 ± 11 mm^3
- tumor volume ± SEM ([5]; Day 28): 93 ± 20 mm^3
- tumor volume ± SEM ([5]; Day 35): 110 ± 31 mm^3
- tumor volume ± SEM ([5]; Day 42): 184 ± 48 mm^3
- tumor volume ± SEM ([5]; Day 49): 284 ± 78 mm^3
- tumor volume ± SEM ([5]; Day 56): 384 ± 106 mm^3
- tumor volume ± SEM ([5]; Day 63): 538 ± 178 mm^3
- tumor volume ± SEM ([5]; Day 70): 667 ± 174 mm^3
- tumor volume ± SEM ([5]; Day 77): 724 ± 171 mm^3
